Data published in PMC3764026, “Adaptive Evolution of Escherichia coli to an α-Peptide/β-Peptoid Peptidomimetic Induces Stable Resistance” (PLoS ONE, 2013).
Converted amounts (≈) assume the structure as drawn. “And” between values parts separate entries of the source, which are not always exact repeats. Identical values can stand only once. Like-named read-outs stand apart in the source and are kept apart here.

How the values were obtained:
Type in all cases: cell-based, Escherichia coli
[1] = tested on: peptidomimetic-adapted E. coli isolates 2-7 and 7-3; assay: Growth rate in MHB supplemented with peptidomimetic 1, adapted isolates
Description: (§1) To evaluate whether resistance altered the physiology of the isolates, we determined the growth rate of all forty isolates from lineage 2, 4, 5 and 7 as well as of E. coli ATCC 25922 in unsupplemented MHB media. Additionally, we determined the growth rate of the four isolates 2-7, 4-4, 5-6 and 7-3, in MHB supplemented with peptidomimetic 1 at ½×wild type MIC or 1×wild type MIC (i.e. 4 and 8 µg/mL). […] Optical density readings were obtained at 570 nm at 10–12 minute increments on cultures grown at 37°C over 24 hours (unsupplemented MHB) or 72 hours (supplemented MHB) using the automated Bioscreen C system (Labsystems, Helsinki, Finland). Growth rates were found using linear regression on ln(initial CFU/mL) vs. detection time (i.e. the time until a 0.5 unit increase in absorbance was reached) for inoculum sizes ranging from 10^2–10^7 CFU/mL [58]. Data were analysed in GraphPad Prism version 4.03 using One-Way ANOVA followed by Dunnett’s Test to correct for multiple testing. Control groups were E. coli ATCC 25922 (in the absence of peptidomimetic) or E. coli ATCC 25922/isolates grown in unsupplemented media (in the presence of peptidomimetic). Significance levels were in all tests set at p<0.05. All experiments were performed in duplicate on at least two independent days.

[2] = tested on: E. coli ATCC 25922 lineages adapted to polymyxin B; settings: polymyxin B-exposed lineages, ~35 generations unsupplemented; became similar to controls; not shown
Description: (§2) Continuous selection of resistance was performed for peptidomimetic 1 (Figure 1) and for the clinically relevant natural antimicrobial peptide, polymyxin B. A bacterial suspension of a single colony of E. coli ATCC 25922 was re-inoculated (10 µl) five times in unsupplemented MHB (990 µl). It was then re-inoculated in MHB supplemented with peptidomimetic 1 (ten lineages) or polymyxin B (ten lineages), and after ten re-inoculations at constant peptidomimetic or polymyxin B concentration, the concentrations were doubled. […] Four lineages grown in MHB with MilliQ water were included as control. Re-inoculations were performed twice a day, but were reduced to once a day when growth was slower as assessed by turbidity of the cultures. The total number of passages (supplemented with peptidomimetic/AMP) was 77 times equivalent to approx. 500 generations. For each increase in concentration the lineages were preserved as freezing stocks. Ten colony isolates were randomly selected from each lineage population at 32×MIC and preserved as freezing stocks.
(§3) MIC was determined by using the micro-dilution method according to guidelines of the Clinical and Laboratory Standards Institute. Peptidomimetic 1 and erythromycin 1∶2 serial dilutions were prepared from 1024 µg/mL stock solutions to give a final range of 512-0.5 µg/mL in the wells. Ampicillin 1∶2 serial dilutions were prepared from a 256 µg/mL stock solution to give a final range of 128-0.13 µg/mL in the wells. Polymyxin B and gentamicin 1∶2 serial dilutions were prepared from a 64 µg/mL stock solution to give a final range of 32-0.03 µg/mL in the wells. Also, 1∶2 serial dilutions of the AMPs KR-12, IsCTp, melittin and PEP-1-K were prepared from 64 µg/mL stock solutions to give a final range of 32-0.03 µg/mL in the wells; however this was performed in 1% peptone instead of in MHB since activity was drastically diminished in the latter (not shown).
(§4) The population lineages were tested for their susceptibility towards peptidomimetic 1, polymyxin B, gentamicin and ampicillin. Single-culture isolates selected from these populations were additionally tested against peptidomimetic 1, polymyxin B, erythromycin and the five reference AMPs. To estimate the level of cross-resistance to closely related peptidomimetics, MIC determinations were performed for peptidomimetics 2 and 3 (Figure 1) towards selected isolates. The bacterial suspensions were grown overnight in MHB at 37°C for determination of the population MIC, or individual isolates were grown overnight on non-selective BHI agar at 37°C. […] In all experiments, bacterial cells were suspended in 0.9% saline to give a turbidity of 0.13 at OD546 (approximately 1×10^8 CFU/mL) and diluted in MHB pH 7.4 to a final concentration of 5×10^5 CFU/mL in each well. Polypropylene plates (Nunc 442587) were used to minimize peptide binding, and the incubation time was 18–20 hours at 37°C. Incubation time was additionally extended up to 44 hours for the individual isolates due to a potential effect of growth rate on the outcome, but no effect was seen of this (not shown). MIC was found in a minimum of two technical (population MIC) or biological (isolate MIC) replicates as the lowest concentration of the AMP or antibiotic where no visible growth was observed.
(§5) Frozen stocks were reconditioned in unsupplemented MHB media for five transfers (∼35 generations) at 37°C. The heritability of resistance was established through MIC determination of bacterial populations as described above.

[3] = tested on: E. coli ATCC 25922 lineages adapted to peptidomimetic 1; settings: two technical duplicates; for MIC against peptidomimetic 1 after selection: MHB pH 7.4, 37°C, 18–20 h
Description: as §2, §3, §4, §5

[4] = tested on: E. coli ATCC 25922 control lineages; settings: two technical duplicates; for MIC against peptidomimetic 1 after selection: MHB
Description: as §2, §3, §4, §5

E. coli ATCC 25922 = assay: Growth rate in MHB supplemented with peptidomimetic 1, wild type; settings: E. coli ATCC 25922 exposed to 1/16 or 1/32×wt MIC of peptidomimetic 1; p>0.05
Description: as §1

CC(=O)N[C@@H](CCCCNC(=N)N)C(=O)N(CCC(=O)N[C@@H](CCCCNC(=N)N)C(=O)N(CCC(=O)N[C@@H](CCCCNC(=N)N)C(=O)N(CCC(=O)N[C@@H](CCCCNC(=N)N)C(=O)N(CCC(=O)N[C@@H](CCCCNC(=N)N)C(=O)N(CCC(=O)N[C@@H](CCCCNC(=N)N)C(=O)N(CCC(N)=O)[C@@H](C)c1ccccc1)[C@@H](C)c1ccccc1)[C@@H](C)c1ccccc1)[C@@H](C)c1ccccc1)[C@@H](C)c1ccccc1)[C@@H](C)c1ccccc1 [peptidomimetic 1]
growth rate ([1]; isolate 2–7, MHB with 4 µg/mL peptidomimetic 1 (1/32×MIC), p<0.01 vs unsupplemented): significantly reduced growth rate
growth rate ([1]; isolate 2–7, MHB with 8 µg/mL peptidomimetic 1 (1/16×isolate MIC), p<0.01 vs unsupplemented, Bioscreen C, 37°C, 72 h): significantly reduced
growth rate ([1]; isolate 7-3, MHB with 8 µg/mL peptidomimetic 1 (1/16×isolate MIC), p<0.05 vs unsupplemented, Bioscreen C, 37°C, 72 h): significantly reduced
cross-resistance after removal of the selection pressure [2]: lost
MIC against peptidomimetic 1 after 35 generations w/o selection ([3]; peptidomimetic-exposed lineage 1, five passages in unsupplemented MHB): 128 to 256 µg/mL
MIC against peptidomimetic 1 after 35 generations w/o selection ([3]; peptidomimetic-exposed lineage 2, five passages in unsupplemented MHB): 256 µg/mL (≈ 120 µM)
MIC against peptidomimetic 1 after selection ([3]; peptidomimetic-exposed lineage 2, population outgrown at 32×wt MIC): 256 µg/mL (≈ 120 µM)
MIC against peptidomimetic 1 after 35 generations w/o selection ([3]; peptidomimetic-exposed lineage 3, five passages in unsupplemented MHB): 128 µg/mL (≈ 60 µM)
MIC against peptidomimetic 1 after 35 generations w/o selection ([3]; peptidomimetic-exposed lineage 4, five passages in unsupplemented MHB): 128 µg/mL (≈ 60 µM)
MIC against peptidomimetic 1 after selection ([3]; peptidomimetic-exposed lineage 4, population outgrown at 32×wt MIC): 256 µg/mL (≈ 120 µM)
MIC against peptidomimetic 1 after 35 generations w/o selection ([3]; peptidomimetic-exposed lineage 5, five passages in unsupplemented MHB): 128 µg/mL (≈ 60 µM)
MIC against peptidomimetic 1 after selection ([3]; peptidomimetic-exposed lineage 5, population outgrown at 32×wt MIC): 128 µg/mL and 64 to 128 µg/mL
MIC against peptidomimetic 1 after 35 generations w/o selection ([3]; peptidomimetic-exposed lineage 6, five passages in unsupplemented MHB): 64 to 128 µg/mL
MIC against peptidomimetic 1 after 35 generations w/o selection ([3]; peptidomimetic-exposed lineage 7, five passages in unsupplemented MHB): 128 µg/mL (≈ 60 µM)
MIC against peptidomimetic 1 after selection ([3]; peptidomimetic-exposed lineage 7, population outgrown at 32×wt MIC): 128 µg/mL (≈ 60 µM)
MIC against peptidomimetic 1 after 35 generations w/o selection ([3]; peptidomimetic-exposed lineage 8, five passages in unsupplemented MHB): 32 to 64 µg/mL
MIC against peptidomimetic 1 after 35 generations w/o selection ([3]; peptidomimetic-exposed lineage 9, five passages in unsupplemented MHB): 128 µg/mL (≈ 60 µM)
MIC against peptidomimetic 1 after 35 generations w/o selection ([3]; peptidomimetic-exposed lineage 10, five passages in unsupplemented MHB): 32 µg/mL (≈ 15 µM)
MIC against peptidomimetic 1 after selection ([3]; peptidomimetic-exposed lineage 10, population outgrown at 32×wt MIC): 256 µg/mL (≈ 120 µM)
MIC against peptidomimetic 1 after 35 generations w/o selection ([4]; Control 1 lineage (MilliQ water)): 16 to 32 µg/mL
MIC against peptidomimetic 1 after selection ([4]; Control 1 lineage (MilliQ water, no peptidomimetic)): 32 µg/mL (≈ 15 µM)
MIC against peptidomimetic 1 after 35 generations w/o selection ([4]; Control 2 lineage (MilliQ water)): 8 µg/mL (≈ 3.75 µM)
MIC against peptidomimetic 1 after selection ([4]; Control 2 lineage (MilliQ water, no peptidomimetic)): 8 µg/mL (≈ 3.75 µM)
growth rate (E. coli ATCC 25922): reduced growth rate was not seen
